According to paper PMC4000408, “No clinically significant drug interactions between lenalidomide and P-glycoprotein substrates and inhibitors: results from controlled phase I studies in healthy volunteers” (Cancer Chemotherapy and Pharmacology, 2014):
Like-named read-outs stand apart in the source and are kept apart here.

What was measured:
clinical = details: for T max: median (range)
Experimental: Study 1 was designed as a double-blind, placebo-controlled, randomized, 2-period, crossover trial. Subjects were randomized to receive either lenalidomide 10 mg/day for 7 days in Study Period 1 and the matching placebo for 7 days in Study Period 2, or to receive the same two treatments in the reverse order. […] A 10-day washout separated the study periods.
For analysis of lenalidomide in plasma and urine, the assay ranges were 5–1,000 and 100–20,000 ng/mL, respectively, and the details of methods were described previously. […] C [2, 3] H7]-temsirolimus were quantitatively extracted from whole blood sample by protein precipitation extraction.
Non-compartmental pharmacokinetic parameters were estimated from drug concentration–time profiles. Major pharmacokinetic parameters included C max, time to reach C max (T max), terminal-phase half-life (t 1/2), AUC from time zero to the last measurable concentration (AUCt), AUC from time zero to infinity (AUC∞), cumulative urinary excretion as a percentage of administered dose (fe), and renal clearance (CLR).
An analysis of variance (ANOVA) was performed on the natural log-transformed pharmacokinetic parameters to estimate the percentage ratio of geometric means between treatments, and the 90 % confidence interval (CI) for key pharmacokinetic parameters.

[1] = Study 2, Part 1: lenalidomide-quinidine pharmacokinetic interaction, open-label crossover in healthy subjects; format: in vivo, human; details: for fe (cumulative urinary excretion as a percentage of administered dose): urine
Experimental: Study 2, Part 1 was designed as an open-label, fixed-sequence, 2-period, crossover trial. In Period 1, subjects received a single oral dose of 25 mg lenalidomide. […] Study periods were separated by a washout of 7–10 days. In both periods, serial blood samples were collected, and urine samples were pooled over specified intervals for up to 48-h post-lenalidomide dosing to determine plasma and urine lenalidomide concentrations.

[2] = Study 2, Part 2: lenalidomide-temsirolimus pharmacokinetic interaction, open-label crossover in healthy subjects; format: in vivo, human; details: for AUC(0-inf) / AUC(0-t) / Cmax / half-life / CL renal / fe (cumulative urinary excretion as a percentage of administered dose): geometric mean (geometric CV %); for Tmax: median (range); for CL renal: plasma and urine, read-out: CLR (renal clearance); for fe (cumulative urinary excretion as a percentage of administered dose): urine
Experimental: Study 2, Part 2 was designed as an open-label, fixed-sequence, 3-period, crossover trial. In Period 1, subjects received a single oral dose of 25 mg lenalidomide; in Period 2, subjects received a single dose of temsirolimus 25 mg via a 30-min intravenous (IV) infusion; and in Period 3, subjects received both a single 25 mg oral dose of lenalidomide and a single 25 mg IV dose of temsirolimus. Pre-treatment with IV diphenhydramine (25 mg) was administered 30 min prior to start of each temsirolimus infusion. There was a 7–10 day washout between Study Periods 1 and 2, and a minimum 14-day washout between Study Periods 2 and 3.

[3] = Safety evaluation in the phase I studies (AEs, laboratory values, ECG, vital signs); format: in vivo, human; details: lenalidomide given with digoxin, quinidine or temsirolimus vs lenalidomide alone or with placebo
Experimental: Safety was evaluated throughout each study by monitoring AEs, physical examinations, vital signs, clinical laboratory values, and 12-lead electrocardiogram results and was summarized using descriptive statistics.

human P-gp = system: human P-gp; set-up: method as in ref 14, 15 = [14]; 14. Kumar GN, Surapaneni S, Lau H, Laskin O, Fox L (2008) Interaction of lenalidomide with human drug transporters in vitro [abstract 381]. ISSX Online Abstracts Supplement 3 (No. 3). Presented at the || [15]; PMID 21825263; doi:10.1200/JCO.2010.32.4962; 15. Hofmeister CC Yang X Pichiorri F Chen P Rozewski DM Johnson AJ Lee S Liu Z Garr CL Hade EM Ji J Schaaf LJ Benson DM Jr Kraut EH Hicks WJ Chan KK Chen CS Farag SS Grever MR Byrd JC Phelps MA Phase; details: monolayers of LLC-PK1 and MDCKII cell lines expressing human P-gp; cited from earlier work
P-gp = details: up to a concentration of 300 μM, P-gp expressing LLC-PK1 cell line; cited from earlier work
[4] = cited from earlier work
[5] = set-up: method as in PMID 22213235; details: cited from earlier work
[6] = set-up: method as in ref 15 = [15]; PMID 21825263; doi:10.1200/JCO.2010.32.4962; 15. Hofmeister CC Yang X Pichiorri F Chen P Rozewski DM Johnson AJ Lee S Liu Z Garr CL Hade EM Ji J Schaaf LJ Benson DM Jr Kraut EH Hicks WJ Chan KK Chen CS Farag SS Grever MR Byrd JC Phelps MA Phase; details: MM patients, cited from earlier work
CYP3A4 = details: cited from earlier work
human P-gp transporters = details: read-out: Ki for inhibiting human P-gp transporters in vitro; cited from earlier work
[7] = human, oral, lenalidomide 25 mg alone (n = 14), plasma, geometric mean (geometric CV %)
[8] = human, oral, lenalidomide 25 mg alone (n = 17), plasma
[9] = human, lenalidomide 25 mg + temsirolimus 25 mg IV (n = 11), plasma
[10] = human, temsirolimus 25 mg IV + lenalidomide 25 mg (n = 11), whole blood
[11] = human, temsirolimus 25 mg IV alone (n = 14), whole blood

## Nc1cccc2c1CN(C1CCC(=O)NC1=O)C2=O (stereo not shown) [Lenalidomide]
clinical; human, in vivo
  90 % CIs for the ratio of geometric means, lenalidomide alone vs plus an interacting drug, for Cmax and AUC in plasma: completely contained within the limits of 80 and 125%
  Median time of observed Cmax of lenalidomide: 0.5 to 1 h
clinical; human, in vivo, 10 mg
  AUC(0-inf): 475 ng·h/mL
  AUC(0-t): 396 ng·h/mL
  Cmax: 119 ng/mL
  Tmax: 1 h
  half-life: 2.4 h
[1]; [7]
  AUC(0-inf): 1360 ng·h/mL
  AUC(0-t): 1290 ng·h/mL
  half-life: 2.81 h
[1]; human, oral, lenalidomide 25 mg alone (n = 14), plasma, geometric mean (geometric CV %), read-out: Cmax
  Cmax: 367 ng/mL
[1]; human, oral, lenalidomide 25 mg alone (n = 14), plasma, median (range)
  Tmax: 1 h
[1]; human, plasma and urine, oral, lenalidomide 25 mg alone (n = 14), geometric mean (geometric CV %), read-out: CLR (renal clearance)
  CL renal: 227 mL/min
[1]; interacting drug quinidine or temsirolimus (Study 2)
  90 % CIs for the ratio of geometric means, lenalidomide alone vs plus an interacting drug, for renal clearance: completely contained within the limits of 80 and 125%
[1]; lenalidomide 25 mg + quinidine (n = 14), geometric mean (geometric CV %)
  fe (cumulative urinary excretion as a percentage of administered dose): 70.2 (6.6) % dose
[1]; lenalidomide 25 mg alone (n = 14), geometric mean (geometric CV %)
  fe (cumulative urinary excretion as a percentage of administered dose): 74.2 (11.4) % dose
[1]; post-dose, under all treatment conditions (alone, + quinidine, + temsirolimus)
  Time by which urinary excretion of unchanged lenalidomide was nearly complete: ≤ 12 h
[2]; [8]
  AUC(0-inf): 1350 ng·h/mL
  AUC(0-t): 1280 ng·h/mL
  Cmax: 364 ng/mL
  half-life: 2.81 h
  Tmax: 0.5 h
[2]; human, oral, lenalidomide 25 mg alone (n = 17)
  CL renal: 251 mL/min
[2]; human, lenalidomide 25 mg + temsirolimus 25 mg IV (n = 11)
  CL renal: 229 mL/min
[2]; [9]
  AUC(0-inf): 1440 ng·h/mL
  AUC(0-t): 1370 ng·h/mL
  Cmax: 361 ng/mL
  half-life: 2.69 h
  Tmax: 1 h
[2]; lenalidomide 25 mg + temsirolimus 25 mg IV (n = 11)
  fe (cumulative urinary excretion as a percentage of administered dose): 79.6 (8.0) % dose
[2]; lenalidomide 25 mg alone (n = 17)
  fe (cumulative urinary excretion as a percentage of administered dose): 81.0 (10.0) % dose
[3]
  Number of subjects reporting AEs, or number of AEs reported: no apparent increase
Human P-gp
  Efflux ratio: approximately 3
P-gp
  Inhibition of P-gp-dependent transport of digoxin: did not inhibit
[4]
  Absorption after oral administration: > 90%
  Administered dose eliminated by renal excretion of the unchanged drug: Approximately 80%
[4]; known high bioavailability
  Bioavailability: > 90%
[5]; MM patient, lenalidomide 10 mg/day + itraconazole 100 mg/day vs lenalidomide 25 mg/day alone
  Lenalidomide AUC with itraconazole relative to other MM patients receiving lenalidomide alone: 12 fold
[5]; with itraconazole
  Elimination half-life (t 1/2): 5.5 h
[5]; without itraconazole
  Elimination half-life (t 1/2): 6.7 h
[6]; lenalidomide 25 mg/day, temsirolimus 15–20 mg/day
  C max and AUC of lenalidomide with increasing doses of temsirolimus: increase
CYP3A4
  CYP3A4 substrate, inhibitor or inducer status: not a substrate, inhibitor, or inducer of CYP3A4

## C=C[C@H]1C[N@@]2CC[C@H]1C[C@@H]2[C@@H](O)c1ccnc2ccc(OC)cc12 [Quinidine]
[1]; assuming 15 % of unbound drug
  Estimated mean C max for unbound quinidine: approximately 1 μM
[1]; human, oral, 600 mg twice daily, plasma, Day 4, CV % 24.3
  Cmax: 2350 ng/mL
[1]; plasma, Days 4–5, quinidine sulfate 600 mg twice daily
  Mean quinidine trough concentration: 1,705 ng/mL
Human P-gp transporters
  Ki: 900 nM

## CO[C@H]1C[C@@H]2CC[C@@H](C)[C@@](O)(O2)C(=O)C(=O)N2CCCC[C@H]2C(=O)O[C@H]([C@H](C)C[C@@H]2CC[C@@H](OC(=O)C(C)(CO)CO)[C@H](OC)C2)CC(=O)[C@H](C)/C=C(\C)[C@@H](O)[C@@H](OC)C(=O)[C@H](C)C[C@H](C)/C=C/C=C/C=C/1C [Temsirolimus]
[2]; human, in vivo
  90 % CIs for the ratio of geometric means, temsirolimus alone vs temsirolimus plus lenalidomide, for C max and AUCt: completely contained within the limits l of 80 and 125%
[2]; [10]
  AUC(0-inf): 2710 ng·h/mL
  AUC(0-t): 2570 ng·h/mL
  Cmax: 649 ng/mL
  half-life: 15.2 h
  Tmax: 0.47 h
[2]; [11]
  AUC(0-inf): 2800 ng·h/mL
  AUC(0-t): 2670 ng·h/mL
  Cmax: 586 ng/mL
  half-life: 15.3 h
  Tmax: 0.47 h
[6]; temsirolimus 15 mg/day, lenalidomide 15–25 mg/day
  C max and AUC of temsirolimus with increasing doses of lenalidomide: increase

## C[C@H]1O[C@@H](O[C@H]2[C@@H](O)C[C@H](O[C@H]3[C@@H](O)C[C@H](O[C@H]4CC[C@@]5(C)[C@H](CC[C@@H]6[C@@H]5C[C@@H](O)[C@]5(C)[C@@H](C7=CC(=O)OC7)CC[C@]65O)C4)O[C@@H]3C)O[C@@H]2C)C[C@H](O)[C@@H]1O [Digoxin]
clinical; digoxin 0.5 mg + lenalidomide 10 mg/day (n = 17), plasma
  T max: 1.0 (1–3) h
clinical; digoxin 0.5 mg alone (with placebo) (n = 17), plasma
  T max: 1.0 (1–3) h
clinical; human, plasma, oral, 0.5 mg
  AUC(0-inf): 26.3 ng·h/mL
  AUC(0-t): 19.1 ng·h/mL
  Cmax: 1.69 ng/mL
  half-life: 32.3 h
